The test system of the assay is Plasmodium berghei. The assay can be described thus: Luciferase/luciferin-expressing antifolate-resistant parasites were used to infect a culture of HepG2 cells that were pre-incubated with compounds. Infected hepatocytes emit light due to the luciferase reaction. Assay results are presented as the percent inhibition of light emission compared to control. […]. The class given is functional. The following applies: sporozoite; for IC90: read-out: LUCIFERASE INFECTION ASSAY - IC90.

[1] abbreviates: read-out: LUCIFERASE INFECTION ASSAY - IC50.

A word on the IC50: it is the concentration that gives 50% inhibition. For orientation: IC90 means the point of the concentration-response curve where the effect stands at 90%. As to `COc1cc(-c2nc3ccc(NC(=O)Nc4ccc(C)cc4)cn3n2)cc(OC)c1OC`, the IC90 was determined as 2.87 µM. Moreover, the IC50 (HEPG2TOX_HILL_SLOPE 3.16, HEPG2TOX_R_SQUARED 0.688, PBLUC_HILL_SLOPE 3.03, PBLUC_R_SQUARED 0.446, read-out: LUCIFERASE INFECTION ASSAY - IC50) came to 1.39 µM.

As to `O=C(COc1ccccc1)N1CCc2nc(NCc3cccc(Oc4ccccc4)c3)ncc2C1`, the IC90 was greater than 7.07 µM. The IC50 under setting [1] was greater than 7.07 µM.

With `O=C(NCCSCc1ccccc1Cl)c1cccs1`, the IC90 was 8.99 µM. For the setting “PBLUC_HILL_SLOPE 3.91, PBLUC_R_SQUARED 0.447, read-out: LUCIFERASE INFECTION ASSAY - IC50”, the IC50 was 5.12 µM.

With `O=C(NNc1cccc(Cl)c1)c1c[nH]c(=S)n1-c1ccccc1`, the 90% effect concentration (IC90) was greater than 10 µM. The IC50 (PBLUC_HILL_SLOPE 16, PBLUC_R_SQUARED 0.438, read-out: LUCIFERASE INFECTION ASSAY - IC50) is 9.92 µM.

`CNC(=O)c1ccc(-c2cc(C(F)(F)F)n(C)n2)s1`: the IC90 was greater than 11.4 µM. Also, the IC50 under setting [1] is greater than 11.4 µM.

For `COc1cc(OC)cc(-c2cnc3cnc(-c4ccc(N5CCN(C)CC5)nc4)cn23)c1`, the IC90 is greater than 7.67 µM. Further, the IC50 (HEPG2TOX_HILL_SLOPE 4.69, HEPG2TOX_R_SQUARED 0.215, PBLUC_HILL_SLOPE 12, PBLUC_R_SQUARED 0.625, read-out: LUCIFERASE INFECTION ASSAY - IC50) was 7.27 µM.

For `CC(=O)n1nc(NCc2cccc(Cl)c2)nc1NCc1cccc(Cl)c1`, the IC90 is greater than 8.46 µM. In addition, the IC50 (PBLUC_HILL_SLOPE 1.95, PBLUC_R_SQUARED 0.375, read-out: LUCIFERASE INFECTION ASSAY - IC50) was determined as 4.3 µM.

Turning to `CCN(CC)S(=O)(=O)c1ccc(NC(=O)c2ccccc2Nc2cccc(C(F)(F)F)c2)cc1`, the IC90 is greater than 10 µM. Under “FFLUC_HILL_SLOPE 1.74, FFLUC_R_SQUARED 0.823, read-out: LUCIFERASE INFECTION ASSAY - IC50”, the IC50 is greater than 10 µM.

Regarding `O=C1Nc2ccc(Cl)cc2/C1=C/c1cn(Cc2ccccc2)nc1-c1cccnc1`, the IC90 was greater than 10 µM. Further, the IC50 (PBLUC_HILL_SLOPE 3.18, PBLUC_R_SQUARED 0.696, read-out: LUCIFERASE INFECTION ASSAY - IC50) turned out to be 5.57 µM.

`Cc1nn(Cc2nnc(SCc3cccc(C(F)(F)F)c3)o2)c(C)c1Br`: the IC90 is greater than 7.38 µM. Also, under setting [1], the IC50 was greater than 7.38 µM.

On to `N#CC(C#N)=NNc1ccc(F)c(F)c1F`, for which the IC90 turned out to be 14.5 µM. Also, the IC50 (PBLUC_HILL_SLOPE 9.99, PBLUC_R_SQUARED 0.46, read-out: LUCIFERASE INFECTION ASSAY - IC50) turned out to be 11.6 µM.

With `N#CC(C(=O)COC(=O)c1cc(Br)ccc1O)=C1Nc2ccccc2N1`, the IC90 is greater than 10 µM. The IC50 (PBLUC_HILL_SLOPE 2.06, PBLUC_R_SQUARED 0.487, read-out: LUCIFERASE INFECTION ASSAY - IC50) stood at 6.23 µM.

As for `COc1cc(C(=O)OC(C)c2ccc(F)cc2)cc(OC)c1OC` (configuration not stated), the IC90 is greater than 10 µM. The IC50 (PBLUC_HILL_SLOPE 3.41, PBLUC_R_SQUARED 0.0259, read-out: LUCIFERASE INFECTION ASSAY - IC50) was determined as 9.26 µM.

As for `Cc1cc(C(=O)C(C)OC(=O)c2ccc(S(=O)(=O)NCc3ccco3)cc2)c(C)n1-c1ccc(Cl)cc1` (configuration not stated), the IC90 is greater than 10 µM. The half-inhibitory concentration (IC50) (HEPG2TOX_HILL_SLOPE 0.938, HEPG2TOX_R_SQUARED 0.54, PBLUC_HILL_SLOPE 4.63, PBLUC_R_SQUARED 0.33, read-out: LUCIFERASE INFECTION ASSAY - IC50) was 7.49 µM.

Regarding `CN1CCc2nc3sc(C(=O)Nc4ccc(Cl)cc4F)c(N)c3cc2C1`, the IC90 was greater than 8.44 µM. Besides, the IC50 under setting [1] is greater than 8.44 µM.

Turning to `Cc1ccc(C)c(OCC(O)Cn2nc(C)c3ccccc3c2=O)c1C` (configuration not stated), the IC90 was greater than 10 µM. Further, under setting [1], the IC50 is greater than 10 µM.

Take `O=C(Cc1csc(Cc2ccccc2)n1)N1CCc2ccc(O)cc2C1`: the IC90 is greater than 10 µM. Besides, the IC50 (PBLUC_HILL_SLOPE 3.03, PBLUC_R_SQUARED 0.78, read-out: LUCIFERASE INFECTION ASSAY - IC50) was found to be 6.09 µM.

As to `OCc1ccc(-c2cnc3cnc(-c4cccc(F)c4)cn23)cc1`, the IC90 was greater than 10.3 µM. In addition, under setting [1], the IC50 is greater than 10.3 µM.

For `O=C(NCCN1C(=O)S/C(=C\c2ccccc2Cl)C1=O)c1ccc(Br)o1`, the IC90 was greater than 10 µM. The IC50 under setting [1] is greater than 10 µM.

As for `Cn1c(N)c(N2CCNCC2)c(=O)n(C)c1=O`, the IC90 was greater than 10 µM. Further, under setting [1], the IC50 is greater than 10 µM.

`Cc1ccc[n+](CC(=O)c2ccc3c(c2)Cc2ccccc2-3)c1C`: the IC90 is greater than 8.37 µM. The IC50 (PBLUC_HILL_SLOPE 0.83, PBLUC_R_SQUARED 0.466, read-out: LUCIFERASE INFECTION ASSAY - IC50) was greater than 8.37 µM.

As for `COc1cc(/C=N/NC(=S)Nc2ccccc2OC)ccc1O`, the IC90 was greater than 9.96 µM. The IC50 (FFLUC_HILL_SLOPE 0.707, FFLUC_R_SQUARED 0.581, PBLUC_HILL_SLOPE 0.242, PBLUC_R_SQUARED 0.281, read-out: LUCIFERASE INFECTION ASSAY - IC50) is greater than 9.96 µM.

For `COc1ccccc1N(C(=O)c1cccc(C#N)c1)c1nc2ccccc2s1`, the IC90 is greater than 10 µM. The IC50 under setting [1] is greater than 10 µM.

In the case of `OC(c1cc(C(F)(F)F)cc(C(F)(F)F)c1)c1cc(C(F)(F)F)cc(C(F)(F)F)c1`, the IC90 was greater than 7.23 µM. Also, the IC50 (HEPG2TOX_HILL_SLOPE 8.63, HEPG2TOX_R_SQUARED 0.166, read-out: LUCIFERASE INFECTION ASSAY - IC50) is greater than 7.23 µM.

Regarding `Cc1cc(C)n(-c2ccc(NC(=O)C3(c4ccccc4)CC3)cn2)n1`, the IC90 is 0.834 µM. For the same molecule, where the note is “PBLUC_HILL_SLOPE 3.93, PBLUC_R_SQUARED 0.515, read-out: LUCIFERASE INFECTION ASSAY - IC50”, the IC50 came out at 0.477 µM.

With `Clc1ccccc1OCc1nnc(SCc2csc(-c3ccccc3)n2)o1`, the IC90 is greater than 10 µM. For the same molecule, the IC50 under setting [1] was greater than 10 µM.

On to `COc1cccc(/C=C/C(=O)Oc2c(Cl)cc(Cl)c3ccc(C)nc23)c1OC`, for which the IC90 is 9.03 µM. The IC50 (PBLUC_HILL_SLOPE 3.32, PBLUC_R_SQUARED 0.808, read-out: LUCIFERASE INFECTION ASSAY - IC50) worked out at 4.66 µM.

With `Cc1cc2ccccn2c1C(=O)c1ccc(-c2ccccc2)cc1`, the concentration for an effect of 90% (IC90) turned out to be 3.77 µM. Also, the IC50 (HEPG2TOX_HILL_SLOPE 2.45, HEPG2TOX_R_SQUARED 0.945, PBLUC_HILL_SLOPE 19.6, PBLUC_R_SQUARED 0.427, read-out: LUCIFERASE INFECTION ASSAY - IC50) was 3.37 µM.

In the case of `COc1cccc(C(O)c2nc(C(=O)Nc3ccc(OCc4ccccc4)cc3)cs2)c1` (configuration not stated), the IC90 is 4.39 µM. Under “HEPG2TOX_HILL_SLOPE 0.759, HEPG2TOX_R_SQUARED 0.957, PBLUC_HILL_SLOPE 2.06, PBLUC_R_SQUARED 0.859, read-out: LUCIFERASE INFECTION ASSAY - IC50”, the IC50 stood at 1.51 µM.

On to `O=C(Nc1cc(Cl)cc(Cl)c1)c1cc(Cl)c(-n2cccc2)c(Cl)c1`, for which the IC90 came to 4.35 µM. Besides, where the note is “FFLUC_HILL_SLOPE 1.91, FFLUC_R_SQUARED 0.0412, HEPG2TOX_HILL_SLOPE 16.8, HEPG2TOX_R_SQUARED 0.892, PBLUC_HILL_SLOPE 9.75, PBLUC_R_SQUARED 0.262, read-out: LUCIFERASE INFECTION ASSAY - IC50”, the IC50 was determined as 3.47 µM.

In the case of `O=C(Nc1cccc(C(F)(F)F)c1)c1cc(Cl)c(=O)n(Cc2cccc(C(F)(F)F)c2)c1`, the IC90 is greater than 6.95 µM. Moreover, the IC50 (HEPG2TOX_HILL_SLOPE 12.5, HEPG2TOX_R_SQUARED 0.604, PBLUC_HILL_SLOPE 13, PBLUC_R_SQUARED 0.312, read-out: LUCIFERASE INFECTION ASSAY - IC50) came out at 6.47 µM.

For the molecule `O=S(=O)(Nc1ccc(OC(F)F)c(Cl)c1)c1ccc(Cl)c(Cl)c1`, the IC90 is greater than 10 µM. Besides, under setting [1], the IC50 is greater than 10 µM.

As to `CCCN(CC(=O)Nc1cc(Cl)ccc1Cl)CC(=O)Nc1sccc1C(N)=O`, the IC90 is greater than 10 µM. The IC50 under setting [1] was greater than 10 µM.

With `c1ccc(-n2nnnc2Sc2ncnc3sc4c(c23)CCC4)cc1`, the IC90 is greater than 10 µM. Also, the IC50 under setting [1] is greater than 10 µM.

For the molecule `c1csc(-c2nnc(Sc3ncnc4sccc34)[nH]2)c1`, the IC90 was greater than 10 µM. Moreover, the IC50 under setting [1] is greater than 10 µM.

On to `Cc1cc(C(=O)OCC(=O)Nc2cccc(C#N)c2)c(C)n1-c1ccccc1`, for which the 90% effect concentration (IC90) is greater than 10 µM. For the same molecule, the IC50 (HEPG2TOX_HILL_SLOPE 2.12, HEPG2TOX_R_SQUARED 0.531, read-out: LUCIFERASE INFECTION ASSAY - IC50) is greater than 10 µM.

As for `Fc1cccc(NC(=S)NN=C2CCCCCC2)c1`, the IC90 is greater than 11.8 µM. In addition, the IC50 (PBLUC_HILL_SLOPE 0.519, PBLUC_R_SQUARED 0.189, read-out: LUCIFERASE INFECTION ASSAY - IC50) is greater than 11.8 µM.

Take `COc1ccc(-c2ccc(C=C(C#N)C#N)s2)cc1`: the IC90 is 0.914 µM. Under setting [1], the IC50 is 0.403 µM.

`NC1=NC(=O)C(Cc2ccc(OC(F)(F)F)cc2)S1` (configuration not stated): the IC90 is 1.02 µM. The IC50 (PBLUC_HILL_SLOPE 3.06, PBLUC_R_SQUARED 0.937, read-out: LUCIFERASE INFECTION ASSAY - IC50) came to 0.497 µM.

For `O=C1/C(=C/Nc2cccc(O)c2)c2ccccc2C(=O)N1Cc1ccccc1`, the IC90 was 9.61 µM. Moreover, the IC50 (PBLUC_HILL_SLOPE 10.5, PBLUC_R_SQUARED 0.272, read-out: LUCIFERASE INFECTION ASSAY - IC50) is 7.8 µM.

`CCN(CC)c1ccc(/C=C2\CCc3cnn(-c4nc(-c5ccccc5)cs4)c32)cc1`: the IC90 is greater than 10 µM. For the same molecule, the IC50 (FFLUC_HILL_SLOPE 3.85, FFLUC_R_SQUARED 0.639, read-out: LUCIFERASE INFECTION ASSAY - IC50) was greater than 10 µM.
